pIC50: −log10 of the molar value.
Experiments:
B16F10 [1] = assay: Cloning assay, colony formation in semi solid medium (methylcellulose); format: cell-based, Murine; conditions: for pIC50: Mus musculus, B16-F10, 168 h, B16F10, one week, read-out: Inhibition of colony formation (methylcellulose) IC50
Procedure: (§1) Cells were embedded in complete culture medium supplemented with 0,8% methylcellulose (Methocel MC4000, Sigma), seeded in triplicate into 35-mm dishes (Greiner Bio-one Ref 627102, Dominique Dutscher) and incubated at 37 °C in a humidified 5% CO2 atmosphere.
(§2) The number of cells seeded was 1000 cells per dish. After one week (B16F10 cell line) to 3 weeks (NIH 3T3 EF cell line), macroscopic clones were counted.

NIH 3T3 EF [2] = assay: MTT assay (cellular viability); format: cell-based; conditions: Mus musculus, NIH3T3, 72 h, 3 days
Procedure: (§3) Growth studies were performed using the [3-(4,5 dimethylthiazol-2-yl)-2,5-diphenyl-2H-tetrazolium bromide] (Sigma) colorimetric assay.
(§4) About 1500 cells were seeded in a 96-well culture plate 24 hours before adding increasing concentrations of tested molecule. The plate was incubated at 37°C for 3 days. 10 µl MTT stock solution (5 mg/ml in phosphate buffer saline) was added to 90 µl of complete medium in each well, the incubation was continued for 3 h at 37°C. 100 µl of lysis buffer (10 % sodium dodecyl sulfate, 1% HCl 1N; pH 4.7) was added to each well, and the plate was incubated overnight. The absorbance was determined using an Integrated EIA Management System (Labsystem) at a wavelength of 570 nm. The proliferation rates were calculated from the OD readings using the untreated cells as 100%.

NIH 3T3 EF cells = assay: Rescue of F-actin network, FITC-phalloidin fluorescence microscopy; format: cell-based; conditions: non cytotoxic concentration (100 nM), three days, Figure 4
Procedure: Malignant NIH 3T3 EF cells were seeded onto glass cover slips at a density of 2000 cells per cm^2. The next day, tested molecules were applied to NIH 3T3 EF cells at various non cytotoxic concentrations. Three days later, cells were fixed for 10 min in PBS containing 3.7 % formaldehyde at 4°C before examination with a fluorescence microscope. The formaldehyde solution was neutralized with 50 mM NH4Cl. Permeabilisation was carried out for 4 min with 0.4% Triton X-100 in PBS. Cells were incubated for 1 h at room temperature with blocking buffer (3% bovine serum albumin in PBS) and then for 1 h with FITC-phalloidin (Sigma) which stabilizes structures by inhibiting phosphate release from ADP-Pi-actin filaments and allows visualization of actin filaments by fluorescence microscopy. The cover slips were mounted on microscope slides using a solution of glycerol 50%, DABCO 2.5% in PBS as embedding medium.

F-actin = assay: Actin dynamics, fluorescence anisotropy assay in tumor cell cytosolic fraction; format: biochemical; design: Kobs: unit not given beside the values; conditions: for Kobs: rate constant of F-actin elongation; for actin polymerisation kinetics compared with normal NIH 3T3 cytosolic fraction: tumoral NIH 3T3 EF cytosolic fraction; for F actin steady state value (Δ mA max), effect in words / F actin elongation rate constant (Kobs), effect in words: added to assay medium, versus untreated; for F actin steady state value (Δ mA max), effect in words: NIH 3T3 EF cytosolic fraction or lysate, harmol at 10 µM
Procedure: Actin dynamics have been quantified in tumor cell cytosolic fraction using the fluorescence anisotropy assay which gains access to rate constant of F-actin elongation (kobs) and steady state concentration of F-actin (Δ mA max).
All reactions were carried out at 22°C and fluorescence anisotropy signal was recovered at 520 nm with excitation at 490 nm in a Beacon 2000 (Panvera). Alexa 488 actin (Molecular Probes) was centrifuged at 35 000 rpm for 2 h at 4°C to sediment residual actin polymers in a Beckman L5-50B ultracentrifuge. […] 80% of the supernatant was withdrawn; the concentration was defined through fluorescence measurements (excitation at 490 nm and signal recovering at 520 nm). The ultracentrifuged actin concentration was calculated using the non ultracentrifuged Alexa 488 actin as a standard. The supernatant was aliquoted, frozen in liquid nitrogen and stored at -80°C.
Before experiment, an aliquot of ultracentrifuged Alexa 488 actin was diluted to a concentration of 1 mg/ml in G buffer (5 mM Tris pH 8.1, 2 mM CaCl2, 0.2 mM DTT, 0.2 mM ATP). 3 µl of diluted Alexa 488 actin was mixed in 168 µl of G buffer and actin monomers anisotropy was measured before the addition of 4 µl of polymerisation buffer (2.5 M KCI, 50 mM MgCl2, 25 mM ATP), 5 µl of G buffer in the presence or in the absence of the chemical molecule and 20 µl cellular extract of normal NIH 3T3 cells or malignant NIH 3T3 EF cells at 2 mg/ml. The final concentration of Alexa 488 actin was 4 nM. The ratio of unlabelled to labelled actin was about 140/4 nM. Measurements were made each 10 sec for 200 sec. Actin monomers anisotropy value was subtracted, yielding the anisotropy enhancement (Δ mA). The data were fitted with the equation Y= Ymax . [1- exp(- K.X)]. The curves start at zero and ascend to Ymax that corresponds to the steady state anisotropy value (Δ mA eq), with a rate constant K. Y is anisotropy values of which monomers anisotropy is substracted and X is the time (Assessment of cellular actin dynamics by measurement of fluorescence anisotropy. Anal Biochem. 2007 Aug 1;367(1):95-103. Epub 2007 Apr 5. Spitz et al.).

NIH 3T3 EF [3] = assay: Cloning assay, colony formation in semi solid medium (methylcellulose); format: cell-based; conditions: for inhibitory activity on NIH 3T3 EF colony formation in methylcellulose semi-solid medium: Figure 2; for pIC50: Mus musculus, NIH3T3, 504 h, NIH 3T3 EF, 3 weeks, read-out: Inhibition of colony formation (methylcellulose) IC50
Procedure: as §1, §2

B16F10 [4] = assay: MTT assay (cellular viability); format: cell-based, Murine; conditions: for pIC50: Mus musculus, B16-F10, 72 h, B16F10, 3 days
Procedure: as §3, §4

[5] = tested on: malignant NIH 3T3 EF cells; assay: Wound healing assay (cell motility); format: cell-based; conditions: NIH 3T3 EF, non cytotoxic concentration (25-100 nM), 10 h after wound formation, Figure 5
Procedure: (§5) Harmol dimers have been tested in a cell motility assay: the behaviour of tumoral cells treated by these dimers was compared with non-treated tumoral cells in a wound healing assay. Wound healing assay was performed to evaluate the effect of tested molecules on motility of malignant NIH 3T3 EF cells and melanoma cell line B16F10. About 100 000-200 000 cells were seeded in a 6-well culture plate and the tested molecule was added 24 hours later. Cells were grown for 3 days to confluence about 90-95% and small scratch-wounds (1 mm width) were made with a pipette tip. Cell debris were removed, then the cultures were incubated in complete medium for 10 h in the presence of the same concentration of the tested molecule. Then, the cells were fixed for 10 min in PBS containing 3.7% formaldehyde at 4°C.

[6] = tested on: melanoma cell line B16F10; assay: Wound healing assay (cell motility); format: cell-based, Murine; conditions: B16F10, non cytotoxic concentration (25-100 nM), 24 h after wound formation, Figure 6
Procedure: as §5, with “Cell debris were removed, then the cultures were incubated in complete medium for 10 h in the presence of the same concentration of the tested molecule.” left out

B16F10 tumor = assay: In vivo tumorigenicity assay, subcutaneous B16F10 tumor growth; design: species or system C57BU6 mice
Procedure: Female 6-8 week-old C57BU6 mice were provided by Harlan (Gannat, France).
Animals were housed in air-conditioned atmosphere, given food and water in standard conditions. One million B16F10 cells in 0.1 ml PBS were injected subcutaneously into the right flank of mice. Seven days after cells inoculation, it was possible to measure tumor volume (day 0). Thereafter, before drug administration, female C57BU6 mice were randomized to form 2 groups. […]
B16F10 tumor development was monitored for 2 weeks. The tumor size was estimated every fourth day by measuring the diameters of the tumors in two perpendicular dimensions using callipers. The volume of tumor (V) was calculated using the formula, V = 2W(U2)2 , where L and W were respectively the length and the width of tumor.
In vivo tumorigenicity assay was studied with harmine. […] In parallel, control mice were treated by one daily oral route administration of the vehicle.

[7] = 10 µM, NIH 3T3 EF extract, steady state concentration of F-actin (anisotropy enhancement)

| SMILES | pIC50 (B16F10 [1]) | pIC50 (B16F10 [4]) | inhibitory activity on B16F10 colony formation in methylcellulose semi-solid medium (B16F10 [1]; Figure 3) | pIC50 (NIH 3T3 EF [2]) | reorganisation of the actin network in tumor cells (NIH 3T3 EF cells) | Kobs (F-actin; 10 µM, NIH 3T3 EF extract) | Δ mA max (F-actin; [7]) | actin polymerisation kinetics compared with normal NIH 3T3 cytosolic fraction (F-actin; 10 µM) | F actin steady state value (Δ mA max), effect in words (F-actin) | F actin elongation rate constant (Kobs), effect in words (F-actin; NIH 3T3 EF cytosolic fraction) | inhibitory activity on NIH 3T3 EF colony formation in methylcellulose semi-solid medium (NIH 3T3 EF [3]) | pIC50 (NIH 3T3 EF [3]) | inhibition of malignant cell motility [5] | inhibition of malignant cell motility [6] | further results |
| --- | --- | --- | --- | --- | --- | --- | --- | --- | --- | --- | --- | --- | --- | --- | --- |
| COc1ccc2c3ccnc(C)c3n(CCCCCn3c4cc(OC)ccc4c4ccnc(C)c43)c2c1 [BA016FZ518, 9,9'-pentane-1,5-diylbis(7-methoxy-1-methyl-9H-β-carboline)] | 7.40 | 5.52 | marked inhibitory activity | 6.12 | able to reorganise the actin network | 0,104 | 59 | similar | increased | increased | marked inhibitory activity | 6.60 | inhibited | inhibited |  |
| Cc1nccc2c1[nH]c1cc(O)ccc12 [harmol] |  |  |  |  |  |  |  |  | No increase |  |  |  |  |  | inhibitory activity on B16F10 colony formation in methylcellulose semi-solid medium (B16F10 [1]; at 3 µM): did not display an inhibitory activity; Δ mA max (F-actin; 10 µM, tumoral NIH3T3 EF cellular lysate): 42 mA; cytotoxicity as measured by MTT test (B16F10 [4]; at 3 µM): non-cytotoxic concentration |
| Cc1nccc2c1[nH]c1cc(OCCCCCOc3ccc4c(c3)[nH]c3c(C)nccc34)ccc12 [BA016DD1172, 7,7'-[Pentane-1,5-diylbis(oxy)]bis(1-methyl-9H-β-carboline)] | 7.52 | 6.40 | marked inhibitory activity | 6.52 | able to reorganise the actin network | 0,179 | 62 | similar | increased | increased | marked inhibitory activity | 7.30 | inhibited | inhibited | antitumor activity against B16 melanoma (B16F10 tumor; daily per os 100 mg/kg for five days, Figure 7): marked antitumor activity; tumoral growth inhibition (B16F10 tumor; day 7, daily per os 100 mg/kg for five days, versus control group, p = 0,0020): 48,5% |

Continued, in another order:

| pIC50 (B16F10 [1]) | pIC50 (B16F10 [4]) | SMILES | inhibitory activity on B16F10 colony formation in methylcellulose semi-solid medium (B16F10 [1]; Figure 3) | pIC50 (NIH 3T3 EF [2]) | reorganisation of the actin network in tumor cells (NIH 3T3 EF cells) | Kobs (F-actin; 10 µM, NIH 3T3 EF extract) | Δ mA max (F-actin; [7]) | actin polymerisation kinetics compared with normal NIH 3T3 cytosolic fraction (F-actin; 10 µM) | F actin steady state value (Δ mA max), effect in words (F-actin) | F actin elongation rate constant (Kobs), effect in words (F-actin; NIH 3T3 EF cytosolic fraction) | inhibitory activity on NIH 3T3 EF colony formation in methylcellulose semi-solid medium (NIH 3T3 EF [3]) | pIC50 (NIH 3T3 EF [3]) | inhibition of malignant cell motility [5] | inhibition of malignant cell motility [6] | further results |
| --- | --- | --- | --- | --- | --- | --- | --- | --- | --- | --- | --- | --- | --- | --- | --- |
| 6.76 | 5.82 | Cc1nccc2c1[nH]c1cc(OCCCOc3ccc4c(c3)[nH]c3c(C)nccc34)ccc12 [BA016FZ527, 7,7'-[Propane-1,3-diylbis(oxy)]bis(1-methyl-9H-β-carboline)] | marked inhibitory activity | 6.00 | able to reorganise the actin network | 0,132 | 83 |  | increased | increased | marked inhibitory activity | 6.30 | inhibited | inhibited | F actin steady state value compared with NIH 3T3 cytosolic fraction (F-actin; 10 µM, NIH 3T3 EF cytosolic fraction): higher; F actin elongation rate constant compared with NIH 3T3 cytosolic fraction (F-actin; NIH 3T3 EF cytosolic fraction, BA016FZ527 at 10 µM, harmine concentration not given): higher |
| 6.90 | 6.12 | Cc1nccc2c1[nH]c1cc(OCC3OC(C)(C)OC3COc3ccc4c(c3)[nH]c3c(C)nccc34)ccc12 (stereo not drawn) [BA016DD1183, 7,7'-[(2,2-dimethyl-1,3-dioxolane-4,5-diyl)bis(methyleneoxy)]bis(1-methyl-9H-β-carboline)] | marked inhibitory activity | 6.00 | able to reorganise the actin network | 0,158 | 61 | similar | increased | increased | marked inhibitory activity | 6.52 | inhibited | inhibited |  |
